In ChEMBL document CHEMBL5046278, “Synthesis and Evaluation of Novel Tetrahydronaphthyridine CXCR4 Antagonists with Improved Drug-like Profiles” (J Med Chem, 2022):
pIC50: −log10 of the molar value.

Legend:
[1] = Antagonist activity at human CXCR4 receptor expressed in CCRF-CEM cells assessed as inhibition of CXCL12-induced calcium release by calcium flux assay; format: cell-based
[2] = Permeability of compound at pH 7.4 incubated for 4 hrs by PAMPA assay; format: ADME; conditions: read-out: permeability
Cytochrome P450 2D6 = Cytochrome P450 2D6 (Homo sapiens, UniProt P10635); experiment: Inhibition of recombinant human CYP2D6 using AMMC as substrate preincubated for 30 mins followed by substrate addition measured after 45 mins by fluorescence based assay; format: ADME
Sequence of Cytochrome P450 2D6 (P10635 whole entry): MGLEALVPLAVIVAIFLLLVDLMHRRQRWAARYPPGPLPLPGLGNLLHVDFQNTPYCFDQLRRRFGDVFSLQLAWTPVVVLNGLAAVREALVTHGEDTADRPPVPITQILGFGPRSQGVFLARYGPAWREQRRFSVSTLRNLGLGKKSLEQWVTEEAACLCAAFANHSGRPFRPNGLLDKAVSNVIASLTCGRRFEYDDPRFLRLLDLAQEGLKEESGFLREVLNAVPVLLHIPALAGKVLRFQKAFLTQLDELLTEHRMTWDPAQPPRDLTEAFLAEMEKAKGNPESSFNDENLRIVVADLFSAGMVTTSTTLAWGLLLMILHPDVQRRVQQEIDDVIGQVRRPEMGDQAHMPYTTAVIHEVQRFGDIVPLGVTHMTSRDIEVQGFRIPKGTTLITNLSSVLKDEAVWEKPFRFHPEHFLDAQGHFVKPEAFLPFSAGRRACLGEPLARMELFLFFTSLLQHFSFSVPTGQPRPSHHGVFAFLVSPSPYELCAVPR

[3] = Antagonist activity at mAChR (unknown origin) expressed in CCRF-CEM cells assessed as inhibition of calcium release by calcium flux assay; format: cell-based; conditions: Homo sapiens
[4] = Metabolic stability in mouse liver microsomes assessed compound remaining measured after 10 mins in presence of NADPH; format: ADME, Microsome; conditions: read-out: Stability
[5] = Metabolic stability in human liver microsomes assessed compound remaining measured after 10 mins in presence of NADPH; format: ADME, Microsome; conditions: read-out: Stability
[6] = Metabolic stability in rat liver microsomes assessed compound remaining measured after 10 mins in presence of NADPH; format: ADME, Microsome; conditions: read-out: Stability
[7] = Permeability of compound at pH 5.5 incubated for 4 hrs by PAMPA assay; format: ADME; conditions: read-out: permeability
[8] = biological target: T1, Alpha-2A adrenergic receptor (Homo sapiens, UniProt P08913); experiment: Inhibition of alpha 2A adrenergic receptor (unknown origin)
T1 sequence (P08913 whole entry): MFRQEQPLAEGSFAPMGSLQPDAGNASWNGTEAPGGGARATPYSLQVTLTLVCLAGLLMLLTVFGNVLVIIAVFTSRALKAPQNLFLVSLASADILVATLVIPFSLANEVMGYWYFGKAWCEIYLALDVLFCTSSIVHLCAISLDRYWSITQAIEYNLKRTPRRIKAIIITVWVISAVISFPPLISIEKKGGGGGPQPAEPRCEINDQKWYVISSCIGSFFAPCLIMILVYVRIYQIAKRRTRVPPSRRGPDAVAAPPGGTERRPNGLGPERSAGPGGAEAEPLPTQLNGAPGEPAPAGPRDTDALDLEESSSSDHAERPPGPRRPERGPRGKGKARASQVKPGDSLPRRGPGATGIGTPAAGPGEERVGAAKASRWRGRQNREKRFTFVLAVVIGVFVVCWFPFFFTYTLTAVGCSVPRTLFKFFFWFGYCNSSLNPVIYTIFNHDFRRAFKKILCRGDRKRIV

[9] = biological target: Voltage-gated inwardly rectifying potassium channel KCNH2 (Homo sapiens, UniProt Q12809); experiment: Inhibition of human ERG by [3H]]Astemizole binding assay; format: toxicity
Sequence of Voltage-gated inwardly rectifying potassium channel KCNH2 (Q12809 whole entry): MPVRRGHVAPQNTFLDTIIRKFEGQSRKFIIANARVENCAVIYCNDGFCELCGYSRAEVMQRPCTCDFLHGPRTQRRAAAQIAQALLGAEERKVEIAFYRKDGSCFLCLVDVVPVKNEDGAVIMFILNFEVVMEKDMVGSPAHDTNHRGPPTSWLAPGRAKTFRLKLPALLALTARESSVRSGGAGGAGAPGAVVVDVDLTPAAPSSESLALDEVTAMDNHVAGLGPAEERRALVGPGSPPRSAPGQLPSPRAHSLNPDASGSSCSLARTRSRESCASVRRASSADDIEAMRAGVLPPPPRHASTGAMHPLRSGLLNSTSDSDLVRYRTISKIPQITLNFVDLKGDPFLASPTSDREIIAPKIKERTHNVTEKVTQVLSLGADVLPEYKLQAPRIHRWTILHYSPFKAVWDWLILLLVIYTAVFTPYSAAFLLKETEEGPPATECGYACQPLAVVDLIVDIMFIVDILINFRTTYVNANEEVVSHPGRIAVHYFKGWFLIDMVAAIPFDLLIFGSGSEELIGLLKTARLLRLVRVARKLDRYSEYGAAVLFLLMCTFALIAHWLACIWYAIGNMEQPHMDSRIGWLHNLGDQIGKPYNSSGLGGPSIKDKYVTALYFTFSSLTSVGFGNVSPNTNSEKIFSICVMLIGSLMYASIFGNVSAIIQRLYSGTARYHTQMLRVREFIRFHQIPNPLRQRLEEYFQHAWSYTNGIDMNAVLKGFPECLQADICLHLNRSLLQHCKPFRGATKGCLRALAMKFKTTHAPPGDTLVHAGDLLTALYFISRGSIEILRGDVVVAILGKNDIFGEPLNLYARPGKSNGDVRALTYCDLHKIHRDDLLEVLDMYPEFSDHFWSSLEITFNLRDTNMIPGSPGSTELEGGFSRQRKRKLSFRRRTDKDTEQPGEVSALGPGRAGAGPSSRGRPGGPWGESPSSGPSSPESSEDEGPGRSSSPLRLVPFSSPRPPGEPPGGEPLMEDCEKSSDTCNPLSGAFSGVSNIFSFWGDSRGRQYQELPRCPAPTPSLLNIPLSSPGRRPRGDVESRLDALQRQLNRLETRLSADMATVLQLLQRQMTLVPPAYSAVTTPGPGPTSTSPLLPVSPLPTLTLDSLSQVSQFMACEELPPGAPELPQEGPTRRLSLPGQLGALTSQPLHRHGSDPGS

Mu-type opioid receptor = Mu-type opioid receptor (Homo sapiens, UniProt P35372); experiment: Inhibition of mu opioid receptor (unknown origin)
Sequence of Mu-type opioid receptor (P35372 whole entry): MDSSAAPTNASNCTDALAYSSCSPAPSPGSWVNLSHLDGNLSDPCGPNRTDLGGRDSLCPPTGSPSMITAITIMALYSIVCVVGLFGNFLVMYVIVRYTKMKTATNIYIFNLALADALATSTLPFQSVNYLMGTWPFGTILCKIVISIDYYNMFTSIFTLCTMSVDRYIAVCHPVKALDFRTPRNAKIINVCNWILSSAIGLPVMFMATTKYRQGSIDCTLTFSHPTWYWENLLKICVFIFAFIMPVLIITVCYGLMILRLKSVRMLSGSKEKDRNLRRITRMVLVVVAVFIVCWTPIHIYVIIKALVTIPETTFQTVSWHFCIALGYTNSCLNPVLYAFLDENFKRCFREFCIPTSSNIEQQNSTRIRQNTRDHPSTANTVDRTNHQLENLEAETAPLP

[10] = biological target: T2, Alpha-2C adrenergic receptor (Homo sapiens, UniProt P18825); experiment: Inhibition of alpha 2C adrenergic receptor (unknown origin)
T2 sequence (P18825 whole entry): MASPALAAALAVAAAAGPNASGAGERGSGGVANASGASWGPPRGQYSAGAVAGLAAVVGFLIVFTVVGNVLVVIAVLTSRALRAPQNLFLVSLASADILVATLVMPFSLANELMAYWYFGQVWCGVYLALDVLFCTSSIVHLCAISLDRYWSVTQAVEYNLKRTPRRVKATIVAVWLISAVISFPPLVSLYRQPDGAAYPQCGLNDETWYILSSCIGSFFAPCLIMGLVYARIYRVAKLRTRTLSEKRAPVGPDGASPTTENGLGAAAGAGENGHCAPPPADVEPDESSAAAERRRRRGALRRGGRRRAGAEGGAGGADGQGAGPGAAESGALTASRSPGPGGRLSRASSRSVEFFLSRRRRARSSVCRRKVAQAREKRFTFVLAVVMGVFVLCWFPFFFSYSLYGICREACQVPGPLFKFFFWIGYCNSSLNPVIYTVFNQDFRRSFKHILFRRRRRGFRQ

[11] = biological target: T3, Muscarinic acetylcholine receptor M2 (Homo sapiens, UniProt P08172); experiment: Inhibition of M2 mAChR receptor (unknown origin)
T3 sequence (P08172 whole entry): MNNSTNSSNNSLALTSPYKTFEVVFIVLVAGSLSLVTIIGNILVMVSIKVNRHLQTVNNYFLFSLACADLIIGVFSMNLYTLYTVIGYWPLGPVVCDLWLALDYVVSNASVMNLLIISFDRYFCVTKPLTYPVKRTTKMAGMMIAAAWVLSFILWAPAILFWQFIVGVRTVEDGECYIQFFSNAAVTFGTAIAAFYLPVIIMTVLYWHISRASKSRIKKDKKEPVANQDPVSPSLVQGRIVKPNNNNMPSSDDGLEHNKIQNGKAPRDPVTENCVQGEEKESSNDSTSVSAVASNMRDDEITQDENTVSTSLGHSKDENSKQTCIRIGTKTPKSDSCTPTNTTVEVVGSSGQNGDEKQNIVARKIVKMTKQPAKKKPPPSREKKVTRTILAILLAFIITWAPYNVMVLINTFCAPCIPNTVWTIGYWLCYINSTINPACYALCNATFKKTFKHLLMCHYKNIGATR

D(2) dopamine receptor = D(2) dopamine receptor (Homo sapiens, UniProt P14416); experiment: Inhibition of dopamine D2 receptor (unknown origin)
Sequence of D(2) dopamine receptor (P14416 whole entry): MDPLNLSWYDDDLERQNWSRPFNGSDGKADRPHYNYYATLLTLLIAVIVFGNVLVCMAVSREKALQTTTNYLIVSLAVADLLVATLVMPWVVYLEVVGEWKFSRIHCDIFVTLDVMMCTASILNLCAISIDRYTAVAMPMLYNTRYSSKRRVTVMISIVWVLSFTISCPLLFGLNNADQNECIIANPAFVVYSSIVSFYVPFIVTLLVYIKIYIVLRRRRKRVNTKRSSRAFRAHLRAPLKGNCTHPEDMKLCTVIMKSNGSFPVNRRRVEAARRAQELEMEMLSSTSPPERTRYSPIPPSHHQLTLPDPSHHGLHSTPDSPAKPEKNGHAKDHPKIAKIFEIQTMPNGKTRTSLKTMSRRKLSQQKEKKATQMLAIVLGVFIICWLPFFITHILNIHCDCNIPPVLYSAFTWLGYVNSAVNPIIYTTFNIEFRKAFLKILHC

[12] = biological target: Kappa-type opioid receptor (Homo sapiens, UniProt P41145); experiment: Inhibition of kappa opioid receptor (unknown origin)
Sequence of Kappa-type opioid receptor (P41145 whole entry): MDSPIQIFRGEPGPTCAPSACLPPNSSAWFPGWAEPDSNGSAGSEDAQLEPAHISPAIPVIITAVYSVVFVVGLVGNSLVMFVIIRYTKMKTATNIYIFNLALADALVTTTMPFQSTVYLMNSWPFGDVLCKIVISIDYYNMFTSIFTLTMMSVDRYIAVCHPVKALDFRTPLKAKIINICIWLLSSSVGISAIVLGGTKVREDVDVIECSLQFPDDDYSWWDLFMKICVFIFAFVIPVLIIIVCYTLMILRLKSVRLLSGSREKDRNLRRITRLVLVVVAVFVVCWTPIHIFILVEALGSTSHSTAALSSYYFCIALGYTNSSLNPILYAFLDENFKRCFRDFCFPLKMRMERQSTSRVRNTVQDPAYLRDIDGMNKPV

[13] = biological target: Neuronal acetylcholine receptor subunit alpha-7 (Homo sapiens, UniProt P36544); experiment: Inhibition of alpha7 nicotinic acetylcholine receptor (unknown origin)
Sequence of Neuronal acetylcholine receptor subunit alpha-7 (P36544 whole entry): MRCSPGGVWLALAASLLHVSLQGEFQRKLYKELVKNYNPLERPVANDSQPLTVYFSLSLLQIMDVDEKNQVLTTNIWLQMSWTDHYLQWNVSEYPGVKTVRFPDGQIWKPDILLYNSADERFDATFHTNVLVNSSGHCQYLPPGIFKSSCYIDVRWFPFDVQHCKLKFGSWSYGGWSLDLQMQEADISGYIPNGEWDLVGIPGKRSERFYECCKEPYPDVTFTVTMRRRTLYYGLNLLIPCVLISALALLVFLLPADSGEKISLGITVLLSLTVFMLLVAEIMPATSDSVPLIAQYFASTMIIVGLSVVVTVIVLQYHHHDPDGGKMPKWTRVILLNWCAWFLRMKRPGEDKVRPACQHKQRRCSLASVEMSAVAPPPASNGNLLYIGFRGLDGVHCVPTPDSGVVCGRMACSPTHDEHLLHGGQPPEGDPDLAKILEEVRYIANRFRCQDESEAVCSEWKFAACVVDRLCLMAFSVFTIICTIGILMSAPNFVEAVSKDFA

Compound	pIC50 [1]	Papp at 4 h [2] [×10⁻⁶ cm/s]	pIC50 (Cytochrome P450 2D6)	pIC50 [3]	remaining at 10 min [4] [%]	remaining at 10 min [5] [%]	remaining at 10 min [6] [%]	Papp at 4 h [7] [×10⁻⁶ cm/s]	pIC50 [8]	pIC50 [9]	pIC50 (Mu-type opioid receptor)	pIC50 [10]	pIC50 [11]	pIC50 (D(2) dopamine receptor)	pIC50 [12]	pIC50 [13]
NC(=O)NC/C=C/CN(C[C@H]1Cc2ncccc2CN1)[C@H]1CCCc2cccnc21	6.37	0.2	4.74	< 4.77	19	93	1	0.6	–	–	–	–	–	–	–	–
NCCCCN(C[C@H]1Cc2nccnc2CN1)[C@H]1CCCc2cccnc21	7.38	0.2	< 4.70	> 4.48	77	84	50	0.2	–	–	–	–	–	–	–	–
NCCCCN(C[C@H]1Cc2cccnc2CN1)[C@H]1CCCc2cccnc21	7.92	0.6	5.40	–	69	96	49	0.2	5.89	5.27	< 4.52	4.52	4.52	5.00	5.40	–
NCCCCN(C[C@@H]1Cc2cccnc2CN1)[C@H]1CCCc2cccnc21	6.66	7.7	5.36	–	25	92	37	–	–	–	–	–	–	–	–	–
NC/C=C\CN(C[C@H]1Cc2ncccc2CN1)[C@H]1CCCc2cccnc21	7.59	6.8	4.89	6.74	37	85	11	2.8	–	–	–	–	–	–	–	–
CCN(CC)CCCCN(C[C@H]1Cc2ncccc2CN1)[C@H]1CCCc2cccnc21	6.41	24	5.00	< 4.77	1	80	6	0.3	–	–	–	–	–	–	–	–
NCCCCN(C[C@@H]1Cc2nccnc2CN1)[C@H]1CCCc2cccnc21	6.89	0.2	< 4.70	–	73	87	67	0.2	–	–	–	–	–	–	–	–
c1cnc2c(c1)CN[C@@H](CN(CCCCNC1CCOCC1)[C@H]1CCCc3cccnc31)C2	8.14	0.8	< 4.70	< 4.77	35	97	49	0.2	< 4.52	< 4.30	4.70	< 4.52	< 4.52	< 4.52	5.37	< 4.52
CN(C[C@H]1Cc2ncccc2CN1)[C@H]1CCCc2cccnc21	6.32	130	5.55	> 4.77	53	95	7	46	–	–	–	–	–	–	–	–
NCCCCN(C[C@H]1Cc2ncccc2CN1)[C@H]1CCCc2cccnc21	7.96	1.4	4.92	–	86	100	64	1.7	4.96	5.24	< 4.52	4.89	5.06	5.03	5.96	5.77
CN(C[C@@H]1Cc2ncccc2CN1)[C@H]1CCCc2cccnc21	< 4.48	100	5.57	> 4.77	0	100	1	23	–	–	–	–	–	–	–	–
NCc1ccc(CN(C[C@H]2Cc3ncccc3CN2)[C@H]2CCCc3cccnc32)cc1	6.96	6.9	5.57	4.59	53	100	78	2	–	–	–	–	–	–	–	–
c1cnc2c(c1)CN[C@@H](CN(CCCCN(C1COC1)C1COC1)[C@H]1CCCc3cccnc31)C2	5.52	32	< 4.70	< 4.48	33	62	72	6.2	–	–	–	–	–	–	–	–
NC(=O)NC/C=C\CN(C[C@H]1Cc2ncccc2CN1)[C@H]1CCCc2cccnc21	6.34	0.2	4.70	< 4.77	10	100	1	0.5	–	–	–	–	–	–	–	–
NCCCCN(C[C@@H]1Cc2ncccc2CN1)[C@H]1CCCc2cccnc21	6.26	0.7	5.01	–	75	98	55	0.2	–	–	–	–	–	–	–	–
NC/C=C/CN(C[C@H]1Cc2ncccc2CN1)[C@H]1CCCc2cccnc21	6.82	1.5	6.15	4.55	37	85	11	0.2	–	–	–	–	–	–	–	–
CN(C)CCCCN(C[C@H]1Cc2ncccc2CN1)[C@H]1CCCc2cccnc21	6.57	24	5.00	< 4.77	55	100	27	0.2	–	–	–	–	–	–	–	–
c1cnc2c(c1)CN[C@@H](CN(CCCC1CCNCC1)[C@H]1CCCc3cccnc31)C2	7.46	2.4	< 4.70	< 4.48	69	100	40	1.4	–	5.03	< 4.52	5.66	< 4.52	5.01	5.32	4.77
FC1(F)CCC(NCCCCN(C[C@H]2Cc3ncccc3CN2)[C@H]2CCCc3cccnc32)CC1	7.54	5.2	4.82	4.51	47	88	10	–	–	–	–	–	–	–	–	–
NC(=O)NCCCCN(C[C@H]1Cc2ncccc2CN1)[C@H]1CCCc2cccnc21	6.03	0.2	4.89	< 4.77	32	91	1	0.7	–	–	–	–	–	–	–	–
NCCCCN(C[C@H]1Cc2ccccc2CN1)[C@H]1CCCc2cccnc21	–	–	–	> 4.52	–	–	–	0.6	–	–	–	4.64	–	5.24	5.80	< 4.52
